Tested on: malignant melanoma cell strains (P39) tumor
Assay: Heterotransplantation of malignant melanoma cells in nude mice; PCNA and CD31 staining of the excised tumor
Format: in vivo, nude mice (Balb/c Jcl-nu)
Experimental: EMP9 was synthesized by a known method and dissolved in saline. The solution was colored with addition of Evans blue at the final concentration of 0.25%.
Five-week old nude mice (Balb/c Jcl-nu, Japan Clea Inc.) were purchased, maintained in a germfree chamber for a week for acclimatization and then used. 5×10^6 cells of malignant melanoma cell strains (P39, Utsumi and Elkind, 1993) were suspended in a culture solution (0.1 ml) and the suspension was injected subcutaneously interscapularly into the mice. After a few weeks, formation of tumor was observed on the outer skin surface. The major axis×minor axis×height of the tumor was measured twice a week. The tumor was observed until its size became 6×7×7 mm, thereafter administration was started. After the administration, the size of the tumor was measured in a similar manner.
Four doses of 0.1 ml of a 0.5 mg/ml EMP9 solution were administered intraperitoneally at intervals of 1 hr. After 24 hr and 48 hr, 0.1 ml of the solution was administered similarly 4 times, respectively. On the 7th day from the first administration, the tumor was excised.
The excised tumor was fixed in Zamboni fixing liquid or frozen in liquid nitrogen. The tumor fixed in Zamboni fixing liquid was divided into several tissue masses. The plural samples collected from the respective masses were embedded to prepare tissue sections thereof. The proliferating cells were stained using PCNA antibody and the vascular endothelial cells were stained using CD31 antibody, respectively. Hematoxylin was used for nuclear staining. Each of the section specimens was observed under a microscope at 200-fold magnification. The cell number in 20 compartments wherein one compartment has an area of 17.6×10^−3 mm^2 was counted (the cell number was not less than 4,500). The cell proliferation ratio was calculated from the following equation and represented in [Table 1]. Furthermore, the number of blood vessel in 100 compartments was counted, and the average number per a compartment (13.1×10^−2 mm^2) was calculated and represented in [Table 1]. […]

**Q.** “erythropoietin mimetic peptide 9 (GGTYSCHFAPLTWVCKPQGG) [EMP9, erythropoietin receptor antagonist]” was tested. Which “Proliferation ratio (%)” value (P39 melanoma tumor in nude mice, 0.1 ml of 0.5 mg/ml EMP9 intraperitoneally 4 times at 1 hr intervals, repeated after 24 hr and 48 hr, tumor excised on 7th day, PCNA staining, proliferating cells/living cells x100) did it give?
**A.** The value was 3.03%.

**Q.** What about the “Inhibitory effects on tumor proliferation and neovascular proliferation (conclusion in words)” value (conclusion from Table 1, significant difference versus saline group (p<0.05)) of the same substance?
**A.** The value was “superior inhibitory effects on both tumor proliferation and neovascular proliferation”.

**Q.** What about the “Number of blood vessel (average ± standard error)” value (same regimen, CD31 staining, average number per compartment (13.1×10^−2 mm^2), 100 compartments counted) of the same substance?
**A.** The value was 0.64 ± 0.10.

From patent US7053050B2, “Preventives/remedies for proliferative organ diseases chronic arthritic diseases, hypertrophic scar or keloid” (Yoshiko Yasuda, priority 2001, dated 2006)
